Experimental data published in PubChem BioAssay AID1963834 (Molecular Pharmacology Branch, DTP, NCI, 2024).
pIC50: −log10 of the molar value.

Test system: 873145-292-R-J1-PDC complex spheroid viability
Experiment: Anticancer human tumor 873145-292-R-J1-PDC patient-derived renal clear cell carcinoma cell line growth inhibition [POLQ]
Conditions: for pIC50: curve of first compound; for viability, T/C: stronger effect = lower value
Procedure, shortened: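 Three-cell-type spheroids modelling solid tumor plus stroma served as the readout system; POL inhibitors were tested individually and in combination, concentration ranges set by clinical Cmax where known.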
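Note: spheroids exposed to compounds for 7 days before viability readout.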
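Throughout, for viability, T/C: luminescence signal used as surrogate for viable cell content; 100% = DMSO vehicle control viability.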

Structure (SMILES): C#Cc1c(F)ccc2cc(O)cc(-c3ncc4c(N5CC6CCC(C5)N6)nc(OCC56CCCN5CC(F)C6)nc4c3F)c12 (configuration not stated) + COC1C(OC(N)=O)C(O)C(Oc2ccc3c(O)c(NC(=O)c4ccc(O)c(CC=C(C)C)c4)c(=O)oc3c2C)OC1(C)C
- pIC50 (second compound 0.0316 µM): < 5.00
- pIC50 (second compound 0.1 µM): < 5.00
- pIC50 (second compound 0.316 µM): < 5.00
- pIC50 (second compound 1 µM): < 5.00
- pIC50 (second compound 3.16 µM): < 5.00
- pIC50 (second compound 10 µM): < 5.00
- viability, T/C (second compound 0.0316 µM, first compound 0.0316 µM): 97.7%
- viability, T/C (second compound 0.0316 µM, first compound 0.1 µM): 92.7%
- viability, T/C (second compound 0.0316 µM, first compound 0.316 µM): 95.1%
- viability, T/C (second compound 0.0316 µM, first compound 1 µM): 83.9%
- viability, T/C (second compound 0.0316 µM, first compound 3.16 µM): 86.5%
- viability, T/C (second compound 0.0316 µM, first compound 10 µM): 89.6%
- viability, T/C (second compound 0.1 µM, first compound 0.0316 µM): 102%
- viability, T/C (second compound 0.1 µM, first compound 0.1 µM): 97.7%
- viability, T/C (second compound 0.1 µM, first compound 0.316 µM): 99%
- viability, T/C (second compound 0.1 µM, first compound 1 µM): 75.7%
- viability, T/C (second compound 0.1 µM, first compound 3.16 µM): 79.6%
- viability, T/C (second compound 0.1 µM, first compound 10 µM): 82.7%
- viability, T/C (second compound 0.316 µM, first compound 0.0316 µM): 98%
- viability, T/C (second compound 0.316 µM, first compound 0.1 µM): 85.7%
- viability, T/C (second compound 0.316 µM, first compound 0.316 µM): 82.1%
- viability, T/C (second compound 0.316 µM, first compound 1 µM): 77.8%
- viability, T/C (second compound 0.316 µM, first compound 3.16 µM): 86.5%
- viability, T/C (second compound 0.316 µM, first compound 10 µM): 80.4%
- viability, T/C (second compound 1 µM, first compound 0.0316 µM): 94.4%
- viability, T/C (second compound 1 µM, first compound 0.1 µM): 97.1%
- viability, T/C (second compound 1 µM, first compound 0.316 µM): 99.7%
- viability, T/C (second compound 1 µM, first compound 1 µM): 76%
- viability, T/C (second compound 1 µM, first compound 3.16 µM): 82.2%
- viability, T/C (second compound 1 µM, first compound 10 µM): 88.3%
- viability, T/C (second compound 3.16 µM, first compound 0.0316 µM): 92.5%
- viability, T/C (second compound 3.16 µM, first compound 0.1 µM): 92.9%
- viability, T/C (second compound 3.16 µM, first compound 0.316 µM): 83.4%
- viability, T/C (second compound 3.16 µM, first compound 1 µM): 79.3%
- viability, T/C (second compound 3.16 µM, first compound 3.16 µM): 86.4%
- viability, T/C (second compound 3.16 µM, first compound 10 µM): 84%
- viability, T/C (second compound 10 µM, first compound 0.0316 µM): 86.2%
- viability, T/C (second compound 10 µM, first compound 0.1 µM): 95.5%
- viability, T/C (second compound 10 µM, first compound 0.316 µM): 82.1%
- viability, T/C (second compound 10 µM, first compound 1 µM): 86.3%
- viability, T/C (second compound 10 µM, first compound 3.16 µM): 86.9%
- viability, T/C (second compound 10 µM, first compound 10 µM): 82.1%
